System: human PBMCs
Test: Immunoblot of caspase-3 in PBMCs
Assay type: cell-based
From the text: FIG. 3. Initial SAR studies: Assessing activity of PAL functionalized PTMA analogs. […] (A) PA and Ph-PA show less toxic to healthy PBMCs compared to Jurkat cells. […] (B) Immunoblot of caspase-3 in Jurkat and PBMCs with indicated conditions.
• 1) Portimine A and its functional analogs show stereo-selective acute toxicity in cancer cells (FIG. 1). […] (B) Structure of portimine related analogs: phenyl-portimine A (Ph-PA, 36) and epi-portimine A (ePA, 38). Structure of fully functionalized portimine A-based epimeric probe pair: portimine A-diazirine-alkyne (PA-DA, 35-2) and epi-portimine A-diazirine-alkyne (ePA-DA, 35-1). (C) Cell viability analysis of portimine A and analogs. Jurkat cells were treated with increasing concentrations of portimine A and analogs for 24 hours. All presented data as mean of biological replicated experiments (n=3). […] Jurkat cells were treated with portimine A or analogs for 12 hours at 10 nM. […] Structurally related negative control ePA and PB are non-toxic in all cell types in the current concentrate range. PBMCs (25k per well), Jurkat (10k per well). […] Cell cycle analysis in Jurkat cells (FIG. 2). […] Cell lysates were fractionated by sucrose gradient (5-50%) and each fraction were analyzed by western blot. eIF6 levels increase in 60S subunit fraction and decrease in ribosome-free fractions after PA treatment. […]

Row | SMILES | caspase-3 cleavage in human PBMCs
1 | C=CC1=C[C@@H]2[C@@H]3O[C@]4(CC[C@H](O4)C(C)C[C@@H](O)C3=O)CC(O)C3=NCC[C@@]32CC1 (some centres unmarked) [PA, portimine A] | but not human PBMCs
2 | C#CCCC1(CCNC(=O)c2ccc(C3=C[C@@H]4[C@@H]5O[C@]6(CC[C@H](O6)C(C)C[C@@H](O)C5=O)CC(O)C5=NCC[C@@]54CC3)cc2)N=N1 (some centres unmarked) [PA-DA, portimine A-diazirine-alkyne] | but not human PBMCs
